For the assay, the target named is T1, N-lysine methyltransferase KMT5A (Homo sapiens, UniProt Q9NQR1).
T1 sequence (Q9NQR1 whole entry): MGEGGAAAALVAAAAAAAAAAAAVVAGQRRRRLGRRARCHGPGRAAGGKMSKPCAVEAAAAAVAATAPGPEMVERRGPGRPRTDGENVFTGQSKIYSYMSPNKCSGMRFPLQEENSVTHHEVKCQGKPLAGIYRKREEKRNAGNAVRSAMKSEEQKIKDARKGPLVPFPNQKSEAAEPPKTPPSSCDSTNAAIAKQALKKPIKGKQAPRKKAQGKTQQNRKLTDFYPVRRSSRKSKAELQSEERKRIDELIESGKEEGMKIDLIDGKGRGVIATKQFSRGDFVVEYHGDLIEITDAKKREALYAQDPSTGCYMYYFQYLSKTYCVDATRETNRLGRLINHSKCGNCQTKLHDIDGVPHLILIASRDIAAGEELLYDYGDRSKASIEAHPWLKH
Description: Inhibition of SETD8 in HEK293T cells assessed as reduction in H4K20me level after 2 to 3 days by Western blot analysis. It counts as cell-based. In general terms: A western blot detects proteins with antibodies after separation by electrophoresis.

SMILES strings stand for the structures. Where only a bound is given, the exact number is not on record here.

`O=C1C(Cl)=C(NCCN2CCOCC2)C(=O)c2ncccc21`: the EC50 was less than 5 µM.

For the compound `CC1(C)C(=O)N=C2C1=C(O)C(=O)c1ccccc12`, the EC50 was less than 5 µM.

For the compound `Cc1ccc(/N=C2\CC(=O)c3sc(C)nc3C2=O)cc1`, the EC50 is less than 1 µM.

Broadly, the EC50 is the concentration that produces a half-maximal response.

These data come from ChEMBL document CHEMBL4477270, “Design, synthesis, and protein methyltransferase activity of a unique set of constrained amine containing compounds” (Bioorg Med Chem Lett, 2016).
